pIC50: −log10 of the molar value.
Legend:
Type in all cases: biochemical
NRAS WT = NRAS WT (Homo sapiens (Human), UniProt P01111+P62937); assay: Ras-Raf (BRAF RBD) disruption / FRET / MOA assay, NRAS WT; conditions: read-out: IC50* NRAS WT FRET data
Method in brief: (§1)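 Compounds were tested as a 10-point 3-fold dilution series from 30 μM final for their ability to drive ternary complex formation between nucleotide-loaded Ras and cyclophilin A, displacing the BRAF RBD. After 3 h at 25° C., anti-His Eu-W1024 (10 nM) and anti-GST allophycocyanin (50 nM) were added for 1.5 h. A TR-FRET ratio decrease versus DMSO gave IC50.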

K-Ras G13C = K-Ras G13C (Homo sapiens (Human), UniProt P01116+P62937, G13C); assay: Ras-Raf (BRAF RBD) disruption / FRET / MOA assay, KRAS G13C; conditions: KRAS G13C; Ras-Raf disruption/FRET/MOA assay; read-out: IC50* KRAS G13C FRET data
K-Ras G13C, sequence (P01116-2 other isoform, or with tags, fused parts or gaps G13C): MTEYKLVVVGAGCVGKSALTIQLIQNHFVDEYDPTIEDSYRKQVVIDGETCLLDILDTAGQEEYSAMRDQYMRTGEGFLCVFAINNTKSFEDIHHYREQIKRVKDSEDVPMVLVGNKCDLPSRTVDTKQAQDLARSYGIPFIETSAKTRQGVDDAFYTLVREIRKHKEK
K-Ras G13C, sequence (P62937 whole entry): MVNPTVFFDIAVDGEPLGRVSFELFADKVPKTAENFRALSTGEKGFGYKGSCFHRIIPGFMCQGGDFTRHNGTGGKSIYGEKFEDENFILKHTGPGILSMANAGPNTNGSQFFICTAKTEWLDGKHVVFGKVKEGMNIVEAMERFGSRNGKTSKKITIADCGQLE
Method in brief: (§2)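 TR-FRET read-out: a drop in ratio relative to DMSO wells marks disruption of the Ras:RAF complex, reported as IC50. Compounds (3-fold series, 10 points, top 30 μM final) incubated 3 h at 25° C before Eu-anti-His 10 nM and APC-anti-GST 50 nM, 1.5 h more.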

NRAS G12C = NRAS G12C (Homo sapiens (Human), UniProt P01111+P62937, G12C); assay: Ras-Raf (BRAF RBD) disruption / FRET / MOA assay, NRAS G12C; conditions: read-out: IC50* NRAS G12C FRET data
NRAS G12C, sequence (P01111 whole entry G12C): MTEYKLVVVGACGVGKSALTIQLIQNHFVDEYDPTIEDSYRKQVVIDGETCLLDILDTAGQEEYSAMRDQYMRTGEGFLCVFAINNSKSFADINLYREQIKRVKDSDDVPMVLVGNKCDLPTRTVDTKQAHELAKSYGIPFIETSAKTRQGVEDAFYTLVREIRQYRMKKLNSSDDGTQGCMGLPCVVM
NRAS G12C, sequence (P62937 whole entry): as the sequence (P62937 whole entry) above
Method in brief: as §2

NRAS Q61R = NRAS Q61R (Homo sapiens (Human), UniProt P01111+P62937, Q61R); assay: Ras-Raf (BRAF RBD) disruption / FRET / MOA assay, NRAS Q61R; conditions: NRAS Q61R; Ras-Raf disruption/FRET/MOA assay; read-out: IC50* NRAS Q61R FRET data
NRAS Q61R, sequence (P01111 whole entry Q61R): as the sequence (P01111 whole entry G12C) above, with C12G, Q61R counted along it
NRAS Q61R, sequence (P62937 whole entry): as the sequence (P62937 whole entry) above
Method in brief: as §1

KRAS G13D = KRAS G13D (Homo sapiens (Human), UniProt P01116+P62937, G13D); assay: Ras-Raf (BRAF RBD) disruption / FRET / MOA assay, KRAS G13D; conditions: read-out: IC50* KRAS G13D FRET data
KRAS G13D, sequence (P01116-2 other isoform, or with tags, fused parts or gaps G13D): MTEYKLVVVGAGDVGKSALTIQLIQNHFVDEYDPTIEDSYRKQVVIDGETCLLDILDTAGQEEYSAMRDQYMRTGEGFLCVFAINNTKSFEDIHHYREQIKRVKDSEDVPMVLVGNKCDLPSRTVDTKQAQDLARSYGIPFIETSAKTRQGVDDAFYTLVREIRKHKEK
KRAS G13D, sequence (P62937 whole entry): as the sequence (P62937 whole entry) above
Method in brief: as §2

KRAS G12V = KRAS G12V (Homo sapiens (Human), UniProt P01116+P62937, G12V); assay: Ras-Raf (BRAF RBD) disruption / FRET / MOA assay, KRAS G12V; conditions: read-out: IC50* KRAS G12V FRET data
KRAS G12V, sequence (P01116-2 other isoform, or with tags, fused parts or gaps G12V): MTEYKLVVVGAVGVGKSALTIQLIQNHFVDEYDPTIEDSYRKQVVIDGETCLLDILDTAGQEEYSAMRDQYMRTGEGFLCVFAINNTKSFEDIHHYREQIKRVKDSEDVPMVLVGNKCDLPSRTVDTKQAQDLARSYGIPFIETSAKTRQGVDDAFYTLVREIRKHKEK
KRAS G12V, sequence (P62937 whole entry): as the sequence (P62937 whole entry) above
Method in brief: as §2

NRAS Q61K = NRAS Q61K (Homo sapiens (Human), UniProt P01111+P62937, Q61K); assay: Ras-Raf (BRAF RBD) disruption / FRET / MOA assay, NRAS Q61K; conditions: NRAS Q61K; Ras-Raf disruption/FRET/MOA assay; read-out: IC50* NRAS Q61K FRET data
NRAS Q61K, sequence (P01111 whole entry Q61K): as the sequence (P01111 whole entry G12C) above, with C12G, Q61K counted along it
NRAS Q61K, sequence (P62937 whole entry): as the sequence (P62937 whole entry) above
Method in brief: as §1

K-Ras G12C = K-Ras G12C (Homo sapiens (Human), UniProt P01116+P62937, G12C); assay: Ras-Raf (BRAF RBD) disruption / FRET / MOA assay, KRAS G12C; conditions: KRAS G12C; Ras-Raf disruption/FRET/MOA assay; read-out: IC50* KRAS G12C FRET data
K-Ras G12C, sequence (P01116-2 other isoform, or with tags, fused parts or gaps G12C): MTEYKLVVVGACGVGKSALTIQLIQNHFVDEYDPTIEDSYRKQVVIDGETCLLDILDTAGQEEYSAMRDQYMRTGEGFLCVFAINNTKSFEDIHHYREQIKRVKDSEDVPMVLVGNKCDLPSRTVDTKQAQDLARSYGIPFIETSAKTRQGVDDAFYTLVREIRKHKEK
K-Ras G12C, sequence (P62937 whole entry): as the sequence (P62937 whole entry) above
Method in brief: as §2

KRAS Q61H = KRAS Q61H (Homo sapiens (Human), UniProt P01116+P62937, Q61H); assay: Ras-Raf (BRAF RBD) disruption / FRET / MOA assay, KRAS Q61H; conditions: Ras-Raf disruption/FRET/MOA assay; class symbols; read-out: KRAS Q61H FRET data IC50
KRAS Q61H, sequence (P01116-2 other isoform, or with tags, fused parts or gaps Q61H): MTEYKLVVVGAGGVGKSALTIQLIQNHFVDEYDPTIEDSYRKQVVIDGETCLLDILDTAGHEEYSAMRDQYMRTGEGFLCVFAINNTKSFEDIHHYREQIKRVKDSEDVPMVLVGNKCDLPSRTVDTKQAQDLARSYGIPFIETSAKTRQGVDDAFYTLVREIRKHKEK
KRAS Q61H, sequence (P62937 whole entry): as the sequence (P62937 whole entry) above
Method in brief: as §1

NRAS WT, sequence (P01111 whole entry): as the sequence (P01111 whole entry G12C) above, with C12G counted along it
NRAS WT, sequence (P62937 whole entry): as the sequence (P62937 whole entry) above

CCn1c(-c2cccnc2[C@H](C)OC)c2c3cc(ccc31)-c1cccc(c1)C[C@H](NC(=O)[C@H](C(C)C)N1CO[C@@]3(CCN(C(=O)/C=C/CN(C)C)C3)C1=O)C(=O)N1CCC[C@H](N1)C(=O)OCC(C)(C)C2 (atropisomer, axis not shown) [Example A558]
pIC50 (NRAS WT): 6.00 to 7.00
pIC50 (K-Ras G13C): 6.00 to 7.00
pIC50 (NRAS G12C): 7.00 to 8.00
pIC50 (NRAS Q61R): 5.00 to 6.00
pIC50 (KRAS G13D): 6.00 to 7.00
pIC50 (KRAS G12V): 5.00 to 6.00
pIC50 (NRAS Q61K): 5.00 to 6.00
pIC50 (K-Ras G12C): 7.00 to 8.00
pIC50 (KRAS Q61H): 6.00 to 7.00

CO[C@@H](COC1CN(C(=O)C#CC(C)(C)N(C)C)C1)C(=O)N[C@H]1Cc2coc(n2)-c2ccc3c(c2)c(c(-c2cccnc2[C@H](C)OC)n3CC(F)(F)F)CC(C)(C)COC(=O)[C@@H]2CCCN(N2)C1=O (atropisomer, axis not shown) [Example A579]
pIC50 (NRAS WT): 5.00 to 6.00
pIC50 (K-Ras G13C): 5.00 to 6.00
pIC50 (NRAS G12C): > 8.00
pIC50 (NRAS Q61R): < 5.00
pIC50 (KRAS G13D): < 5.00
pIC50 (KRAS G12V): 5.00 to 6.00
pIC50 (NRAS Q61K): < 5.00
pIC50 (K-Ras G12C): > 8.00
pIC50 (KRAS Q61H): 5.00 to 6.00

C=CC(=O)N1CCO[C@H]2CCN(C(=O)N(C)[C@H](C(=O)N[C@H]3Cc4nc(cs4)-c4ccc5c(c4)c(c(-c4cccnc4[C@H](C)OC)n5CC)CC(C)(C)COC(=O)[C@@H]4CCCN(N4)C3=O)C(C)C)C[C@H]21 (atropisomer, axis not shown) [Example A580]
pIC50 (NRAS WT): 6.00 to 7.00
pIC50 (K-Ras G13C): 6.00 to 7.00
pIC50 (NRAS G12C): 7.00 to 8.00
pIC50 (NRAS Q61R): 6.00 to 7.00
pIC50 (KRAS G13D): 6.00 to 7.00
pIC50 (KRAS G12V): 6.00 to 7.00
pIC50 (NRAS Q61K): 7.00 to 8.00
pIC50 (K-Ras G12C): 7.00 to 8.00
pIC50 (KRAS Q61H): 7.00 to 8.00

C=CC(=O)NCCN1CCN(C(=O)N(C)[C@H](C(=O)N[C@H]2Cc3nc(cs3)-c3ccc4c(c3)c(c(-c3cccnc3[C@H](C)OC)n4CC)CC(C)(C)COC(=O)[C@@H]3CCCN(N3)C2=O)C(C)C)CC1 (atropisomer, axis not shown) [Example A582]
pIC50 (NRAS WT): 6.00 to 7.00
pIC50 (K-Ras G13C): 6.00 to 7.00
pIC50 (NRAS G12C): 7.00 to 8.00
pIC50 (NRAS Q61R): 6.00 to 7.00
pIC50 (KRAS G13D): 6.00 to 7.00
pIC50 (KRAS G12V): 6.00 to 7.00
pIC50 (NRAS Q61K): 7.00 to 8.00
pIC50 (K-Ras G12C): 6.00 to 7.00
pIC50 (KRAS Q61H): 7.00 to 8.00

CCn1c(-c2cccnc2[C@H](C)OC)c2c3cc(ccc31)-c1cccc(c1)C[C@H](NC(=O)[C@@H](CO[C@@H]1CCN(C(=O)C#CC(C)(C)N(C)C)C1)C(C)C)C(=O)N1CCC[C@H](N1)C(=O)OCC(C)(C)C2 (atropisomer, axis not shown) [Example A584]
pIC50 (NRAS WT): 5.00 to 6.00
pIC50 (K-Ras G13C): 5.00 to 6.00
pIC50 (NRAS G12C): 7.00 to 8.00
pIC50 (NRAS Q61R): < 5.00
pIC50 (KRAS G13D): < 5.00
pIC50 (KRAS G12V): 5.00 to 6.00
pIC50 (NRAS Q61K): < 5.00
pIC50 (K-Ras G12C): 7.00 to 8.00
pIC50 (KRAS Q61H): 5.00 to 6.00

CCn1c(-c2cccnc2[C@H](C)OC)c2c3cc(ccc31)-c1cc(CF)cc(c1)C[C@H](NC(=O)[C@@H](COC1CN(C(=O)C#CC(C)(C)N(C)C)C1)C(C)C)C(=O)N1CCC[C@H](N1)C(=O)OCC(C)(C)C2 (atropisomer, axis not shown) [Example A587]
pIC50 (NRAS WT): < 5.00
pIC50 (K-Ras G13C): < 5.00
pIC50 (NRAS G12C): 7.00 to 8.00
pIC50 (NRAS Q61R): < 5.00
pIC50 (KRAS G13D): < 5.00
pIC50 (KRAS G12V): < 5.00
pIC50 (NRAS Q61K): < 5.00
pIC50 (K-Ras G12C): 7.00 to 8.00
pIC50 (KRAS Q61H): < 5.00

CO[C@@H](C)c1ncccc1-c1c2c3cc(ccc3n1CC(F)(F)F)-c1cc(CF)cc(c1)C[C@H](NC(=O)[C@@H](COC1CN(C(=O)C#CC(C)(C)N(C)C)C1)C(C)C)C(=O)N1CCC[C@H](N1)C(=O)OCC(C)(C)C2 (atropisomer, axis not shown) [Example A589]
pIC50 (NRAS WT): 5.00 to 6.00
pIC50 (K-Ras G13C): 5.00 to 6.00
pIC50 (NRAS G12C): 7.00 to 8.00
pIC50 (NRAS Q61R): < 5.00
pIC50 (KRAS G13D): < 5.00
pIC50 (KRAS G12V): < 5.00
pIC50 (NRAS Q61K): < 5.00
pIC50 (K-Ras G12C): 7.00 to 8.00
pIC50 (KRAS Q61H): 5.00 to 6.00

Reference: patent publication US11566007B2, “Ras inhibitors” (Revolution Medicines, Inc., priority 2019, dated 2023)
